Structures can show the parent of a compound that is named as a salt. Where two headings read alike, the source gives them in different places.
Target: T1, Human ATX protein (Homo sapiens, UniProt Q13822)
T1 construct: made in house
Assay: ATX biochemical assay (FRET, FS-3 substrate)
Conditions: FS-3 2 μM, ATX 1.0 μg/mL, 30 minutes preincubation, 2 hours reaction at room temperature
Outline: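 In-house human ATX (1.0 μg/mL final) was preincubated with compound for 30 min at room temperature in Tris buffer pH 7.4 with 1 mg/mL fatty acid free-BSA. FS-3 substrate (2 μM final) was then hydrolysed for 2 hours at room temperature, protected from light, and read as fluorescence at ex 485/em 538 nm.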

| Structure (SMILES) | IC50 (FRET assay, read-out: IC50) [µM] | IC50 (IC50, FRET assay) [µM] |
| --- | --- | --- |
| CN(C)c1nn(Cc2ccc(F)cc2)c2c1CCN(C(=O)C[C@H]1CC[C@H](C(=O)O)CC1)C2 [Example 5-43, trans-4-(2-(3-(Dimethylamino)-1-(4-fluorobenzyl)-4,5-dihydro-1H-pyrazolo[3,4-c]pyridin-6 (7H)-yl)-2-oxoethyl)cyclohexanecarboxylic acid] | ≤ 0.1 |  |
| O=C(CC1CCN2CCCC2C1)N1CCc2c(C(F)(F)F)nn(Cc3ccc(Cl)cc3F)c2C1 (stereo not shown) [Example 1-33, 1-(1-(4-Chloro-2-fluorobenzyl)-3-(trifluoromethyl)-4,5-dihydro-1H-pyrazolo[3,4-c]pyridin-6(7H)-yl)-2-(octahydroindolizin-7-yl)ethanone TFA salt] | ≤ 0.1 |  |
| CCOC(=O)C1CCC(CC(=O)N2CCc3c(C(F)(F)F)nn(Cc4ccc(F)cc4)c3C2)CC1 (stereo not shown) [Example 1-1, Ethyl 4-(2-(1-(4-fluorobenzyl)-3-(trifluoromethyl)-4,5-dihydro-1H-pyrazolo[3,4-c]pyridin-6 (7H)-yl)-2-oxoethyl)cyclohexanecarboxylate] | ≤ 0.1 |  |
| CCOC(=O)C1CCC(CC(=O)N2CCc3cnn(Cc4ccc(Cl)cc4F)c3C2)CC1 (stereo not shown) [Example 1-4, Ethyl 4-(2-(1-(4-chloro-2-fluorobenzyl)-4,5-dihydro-1H-pyrazolo[3,4-c]pyridin-6(7H)-yl)-2-oxoethyl)cyclohexanecarboxylate] | ≤ 0.1 |  |
| O=C(N[C@H]1CC[C@H](C(=O)O)CC1)N1CCc2c(C(F)(F)F)nn(Cc3ccc(Cl)cc3F)c2C1 [Example 5-7, trans-4-(1-(4-Chloro-2-fluorobenzyl)-3-(trifluoromethyl)-4,5,6,7-tetrahydro-1H-pyrazolo[3,4-c]pyridine-6-carboxamido)cyclohexanecarboxylic acid] | ≤ 0.1 |  |
| CCOC(=O)[C@H]1CC[C@H](CC(=O)N2CCc3c(C(F)(F)F)nn(Cc4cncs4)c3C2)CC1 [Example 1-47, trans-Ethyl 4-(2-oxo-2-(1-(thiazol-5-ylmethyl)-3-(trifluoromethyl)-4,5-dihydro-1H-pyrazolo[3,4-c]pyridin-6(7H)-yl)ethyl)cyclohexanecarboxylate] | ≤ 0.1 |  |
| O=C(C[C@H]1CC[C@H](C(=O)O)CC1)N1CCc2c(C(F)(F)F)nn(Cc3cccnc3)c2C1 [Example 5-22, trans-4-(2-Oxo-2-(1-(pyridin-3-ylmethyl)-3-(trifluoromethyl)-4,5-dihydro-1H-pyrazolo[3,4-c]pyridin-6(7H)-yl)ethyl)cyclohexanecarboxylic acid] | ≤ 0.1 |  |
| O=C(C[C@H]1CC[C@H](C(=O)O)CC1)N1CCc2c(C(F)(F)F)nn(Cc3ccc(Cl)cc3Cl)c2C1 [Example 7-7, trans-4-(2-(1-(2,4-Dichlorobenzyl)-3-(trifluoromethyl)-4,5-dihydro-1H-pyrazolo[3,4-c]pyridin-6(7H)-yl)-2-oxoethyl)cyclohexanecarboxylic acid] | ≤ 0.1 |  |
| CCOC(=O)[C@H]1CC[C@H](CC(=O)N2CCc3c(C(F)(F)F)nn(Cc4ccc(C)cc4)c3C2)CC1 [Example 1-25, trans-Ethyl 4-(2-(1-(4-methylbenzyl)-3-(trifluoromethyl)-4,5-dihydro-1H-pyrazolo[3,4-c]pyridin-6(7H)-yl)-2-oxoethyl)cyclohexanecarboxylate] | ≤ 0.1 |  |
| O=C(O)C1CC2(CC(CC(=O)N3CCc4c(C(F)(F)F)nn(Cc5ccc(F)cc5)c4C3)C2)C1 (stereo not shown) [Example 6-13, 6-(2-(1-(4-Fluorobenzyl)-3-(trifluoromethyl)-4,5-dihydro-1H-pyrazolo[3,4-c]pyridin-6(7H)-yl)-2-oxoethyl)spiro[3.3]heptane-2-carboxylic acid] | ≤ 0.1 |  |
| CCOC(=O)[C@H]1CC[C@H](CC(=O)N2CCc3c(C(F)(F)F)nn(Cc4cccs4)c3C2)CC1 [Example 1-46, trans-Ethyl-4-(2-oxo-2-(1-(thiophen-2-ylmethyl)-3-(trifluoromethyl)-4,5-dihydro-1H-pyrazolo[3,4-c]pyridin-6(7H)-yl)ethyl)cyclohexanecarboxylate] | ≤ 0.1 |  |
| O=C(CC1CCOCC1)N1CCc2c(C(F)(F)F)nn(Cc3ccc(Cl)cc3F)c2C1 [Example 1-29, 1-(1-(4-Chloro-2-fluorobenzyl)-3-(trifluoromethyl)-4,5-dihydro-1H-pyrazolo[3,4-c]pyridin-6(7H)-yl)-2-(tetrahydro-2H-pyran-4-yl)ethanone] | ≤ 0.1 |  |
| O=C(CC1CCCCC1)N1CCc2c(C(F)(F)F)nn(Cc3ccc(Cl)cc3F)c2C1 [Example 1-5, 1-(1-(4-Chloro-2-fluorobenzyl)-3-(trifluoromethyl)-4,5-dihydro-1H-pyrazolo[3,4-c]pyridin-6(7H)-yl)-2-cyclohexylethanone] | ≤ 0.1 |  |
| O=C(C[C@H]1CC[C@@H](C(=O)O)CC1)N1CCc2c(C(F)(F)F)nn(Cc3ccc(Cl)s3)c2C1 [Example 5-25, cis-4-(2-(1-((5-Chlorothiophen-2-yl)methyl)-3-(trifluoromethyl)-4,5-dihydro-1H-pyrazolo[3,4-c]pyridin-6(7H)-yl)-2-oxoethyl)cyclohexanecarboxylic acid] | ≤ 0.1 |  |
| O=C(C[C@H]1CC[C@H](C(=O)O)CC1)N1CCc2c(C(F)(F)F)nn(Cc3cc(F)cc(Cl)c3)c2C1 [Example 5-3, trans-4-(2-(1-(3-chloro-5-fluorobenzyl)-3-(trifluoromethyl)-4,5-dihydro-1H-pyrazolo[3,4-c]pyridin-6(7H)-yl)-2-oxoethyl)cyclohexanecarboxylic acid] | ≤ 0.1 |  |
| O=C(CC1C2CC3CC1CC(C(=O)O)(C3)C2)N1CCc2c(C(F)(F)F)nn(Cc3ccc(Cl)cc3F)c2C1 (stereo not shown) [Example 5-54, 4-(2-(1-(4-Chloro-2-fluorobenzyl)-3-(trifluoromethyl)-4,5-dihydro-1H-pyrazolo[3,4-c]pyridin-6(7H)-yl)-2-oxoethyl) adamantancarboxylic acid] | ≤ 0.1 |  |
| O=C(C[C@H]1CC[C@H](C(=O)O)CC1)N1CCc2c(C(F)(F)F)nn(Cc3ccccn3)c2C1 [Example 5-23, trans-4-(2-Oxo-2-(1-(pyridin-2-ylmethyl)-3-(trifluoromethyl)-4,5-dihydro-1H-pyrazolo[3,4-c]pyridin-6(7H)-yl)ethyl)cyclohexanecarboxylic acid] | 0.1 to 0.25 |  |
| CCOC(=O)[C@H]1CC[C@H](CC(=O)N2CCc3c(CO)nn(Cc4ccc(F)cc4)c3C2)CC1 [Example 1-41, trans-Ethyl-4-(2-(1-(4-fluorobenzyl)-3-(hydroxymethyl)-4,5-dihydro-1H-pyrazolo[3,4-c]pyridin-6(7H)-yl)-2-oxoethyl)cyclohexanecarboxylate] | 0.25 to 0.5 |  |
| O=C(O)C1CC2CCC(C1)N2CC(=O)N1CCc2c(C(F)(F)F)nn(Cc3ccc(F)cc3)c2C1 (stereo not shown) [Example 13-5, 8-(2-(1-(4-Fluorobenzyl)-3-(trifluoromethyl)-4,5-dihydro-1H-pyrazolo[3,4-c]pyridin-6(7H)-yl)-2-oxoethyl)-8-azabicyclo[3.2.1]octane-3-carboxylic acid] |  | ≤ 0.1 |

More lines, main results first:

| IC50 (FRET assay, read-out: IC50) [µM] | Structure (SMILES) | IC50 (IC50, FRET assay) [µM] |
| --- | --- | --- |
| ≤ 0.1 | O=C(C[C@H]1CC[C@@H](C(=O)O)CC1)N1CCc2c(C(F)(F)F)nn(Cc3ccc(Cl)cc3Cl)c2C1 [Example 7-8, cis-4-(2-(1-(2,4-dichlorobenzyl)-3-(trifluoromethyl)-4,5-dihydro-1H-pyrazolo[3,4-c]pyridin-6(7H)-yl)-2-oxoethyl)cyclohexanecarboxylic acid] |  |
| ≤ 0.1 | O=C(CC1CNCCO1)N1CCc2c(C(F)(F)F)nn(Cc3ccc(Cl)cc3F)c2C1 (stereo not shown) [Example 9-15, 1-(1-(4-Chloro-2-fluorobenzyl)-3-(trifluoromethyl)-4,5-dihydro-1H-pyrazolo[3,4-c]pyridin-6(7H)-yl)-2-(morpholin-2-yl)ethanone TFA salt] |  |
| ≤ 0.1 | CCCC1CC(CC(=O)N2CCc3c(C(F)(F)F)nn(Cc4ccc(F)cc4)c3C2)CCN1C (stereo not shown) [Example 10-8, 1-(1-(4-Fluorobenzyl)-3-(trifluoromethyl)-4,5-dihydro-1H-pyrazolo[3,4-c]pyridin-6(7H)-yl)-2-(1-methyl-2-propylpiperidin-4-yl)ethanone acid TFA salt] |  |
| 0.1 to 0.25 | O=C(O)CCN1CCC(C(=O)N2CCc3c(C(F)(F)F)nn(Cc4ccc(F)cc4)c3C2)C1 (stereo not shown) [Example 15-2, 3-(3-(1-(4-Fluorobenzyl)-3-(trifluoromethyl)-4,5,6,7-tetrahydro-1H-pyrazolo[3,4-c]pyridine-6-carbonyl)pyrrolidin-1-yl)propanoic acid TFA salt] |  |
| ≤ 0.1 | O=C(C[C@H]1CC[C@@H](C(=O)O)CC1)N1CCc2c(C(F)(F)F)nn(Cc3ccccc3)c2C1 [Example 7-12, cis-4-(2-(1-benzyl-3-(trifluoromethyl)-4,5-dihydro-1H-pyrazolo[3,4-c]pyridin-6(7H)-yl)-2-oxoethyl)cyclohexanecarboxylic acid] |  |
| ≤ 0.1 | CS(=O)(=O)NC(=O)[C@H]1CC[C@@H](CC(=O)N2CCc3c(C(F)(F)F)nn(Cc4ccc(F)cc4)c3C2)CC1 [Example 19-2, cis-4-(2-(1-(4-fluorobenzyl)-3-(trifluoromethyl)-4,5-dihydro-1H-pyrazolo[3,4-c]pyridin-6(7H)-yl)-2-oxoethyl)-N-(methylsulfonyl)cyclohexane carboxamide] |  |
| ≤ 0.1 | O=C(O)CN1CCC(CC(=O)N2CCc3c(C(F)(F)F)nn(Cc4ccc(Cl)cc4F)c3C2)CC1 [Example 15-1, 2-(4-(2-(1-(4-Chloro-2-fluorobenzyl)-3-(trifluoromethyl)-4,5-dihydro-1H-pyrazolo[3,4-c]pyridin-6(7H)-yl)-2-oxoethyl)piperidin-1-yl)acetic acid] |  |
| ≤ 0.1 | O=C(CC1CC(N2CCCCC2)C1)N1CCc2c(C(F)(F)F)nn(Cc3ccc(F)cc3)c2C1 (stereo not shown) [Example 22-4, 1-(1-(4-Fluorobenzyl)-3-(trifluoromethyl)-4,5-dihydro-1H-pyrazolo[3,4-c]pyridin-6(7H)-yl)-2-(3-(piperidin-1-yl)cyclobutyl)ethanone TFA salt] |  |
| ≤ 0.1 | O=C(CN1CCC(C(F)(F)F)CC1)N1CCc2c(C(F)(F)F)nn(Cc3ccc(F)cc3)c2C1 [Example 12-15, 1-(1-(4-Fluorobenzyl)-3-(trifluoromethyl)-4,5-dihydro-1H-pyrazolo[3,4-c]pyridin-6(7H)-yl)-2-(4-(trifluoromethyl)piperidin-1-yl)ethanone] |  |
